Test results taken from the NIST ThermoML archive (doi:10.1021/acs.jced.6b00121).

Experiment: xn = mol fraction of the nth substance listed
Conditions: 100 kPa, Liquid; for viscosity: Falling or rolling sphere viscometry; for mass density: Vibrating tube method

CCCCCCCCCCC [undecane] + CCCCCCO
Conditions	mass density [kg/m3]	viscosity [mPa·s]
283.15 K, x1 = 0.1011	812.86	5.655
283.15 K, x1 = 0.1989	802.1	4.274
283.15 K, x1 = 0.2998	792.19	3.34
283.15 K, x1 = 0.4001	783.5	2.615
283.15 K, x1 = 0.4994	775.87	2.198
283.15 K, x1 = 0.6004	768.89	1.95
283.15 K, x1 = 0.6989	762.82	1.72
283.15 K, x1 = 0.8001	757.18	1.564
283.15 K, x1 = 0.8991	752.28	1.455
283.15 K, x1 = 1	747.78	1.371
288.15 K, x1 = 0.1011	809.29	4.784
288.15 K, x1 = 0.1989	798.49	3.651
288.15 K, x1 = 0.2998	788.53	2.88
288.15 K, x1 = 0.4001	779.81	2.322
288.15 K, x1 = 0.4994	772.18	2.019
288.15 K, x1 = 0.6004	765.18	1.752
288.15 K, x1 = 0.6989	759.1	1.554
288.15 K, x1 = 0.8001	753.47	1.419
288.15 K, x1 = 0.8991	748.57	1.329
288.15 K, x1 = 1	744.06	1.249
293.15 K, x1 = 0.1011	805.71	4.073
293.15 K, x1 = 0.1989	794.85	3.136
293.15 K, x1 = 0.2998	784.85	2.505
293.15 K, x1 = 0.4001	776.12	2.118
293.15 K, x1 = 0.4994	768.47	1.808
293.15 K, x1 = 0.6004	761.46	1.58
293.15 K, x1 = 0.6989	755.38	1.41
293.15 K, x1 = 0.8001	749.75	1.293
293.15 K, x1 = 0.8991	744.85	1.218
293.15 K, x1 = 1	740.35	1.145
298.15 K, x1 = 0.1011	802.1	3.494
298.15 K, x1 = 0.1989	791.2	2.719
298.15 K, x1 = 0.2998	781.16	2.198
298.15 K, x1 = 0.4001	772.4	1.886
298.15 K, x1 = 0.4994	764.75	1.626
298.15 K, x1 = 0.6004	757.73	1.432
298.15 K, x1 = 0.6989	751.65	1.284
298.15 K, x1 = 0.8001	746.02	1.182
298.15 K, x1 = 0.8991	741.12	1.116
298.15 K, x1 = 1	736.64	1.062
303.15 K, x1 = 0.1011	798.47	3.016
303.15 K, x1 = 0.1989	787.52	2.374
303.15 K, x1 = 0.2998	777.45	1.952
303.15 K, x1 = 0.4001	768.67	1.687
303.15 K, x1 = 0.4994	761.01	1.47
303.15 K, x1 = 0.6004	753.98	1.305
303.15 K, x1 = 0.6989	747.89	1.176
303.15 K, x1 = 0.8001	742.27	1.09
303.15 K, x1 = 0.8991	737.38	1.031
303.15 K, x1 = 1	732.93	0.982
308.15 K, x1 = 0.1011	794.81	2.62
308.15 K, x1 = 0.1989	783.82	2.09
308.15 K, x1 = 0.2998	773.71	1.746
308.15 K, x1 = 0.4001	764.91	1.517
308.15 K, x1 = 0.4994	757.24	1.334
308.15 K, x1 = 0.6004	750.21	1.193
308.15 K, x1 = 0.6989	744.12	1.08
308.15 K, x1 = 0.8001	738.5	1.002
308.15 K, x1 = 0.8991	733.62	0.954
308.15 K, x1 = 1	729.23	0.91
313.15 K, x1 = 0.1011	791.12	2.29
313.15 K, x1 = 0.1989	780.08	1.857
313.15 K, x1 = 0.2998	769.94	1.574
313.15 K, x1 = 0.4001	761.13	1.372
313.15 K, x1 = 0.4994	753.45	1.226
313.15 K, x1 = 0.6004	746.41	1.106
313.15 K, x1 = 0.6989	740.32	0.996
313.15 K, x1 = 0.8001	734.71	0.927
313.15 K, x1 = 0.8991	729.84	0.886
313.15 K, x1 = 1	725.53	0.847
318.15 K, x1 = 0.1011	787.39	2.02
318.15 K, x1 = 0.1989	776.31	1.664
318.15 K, x1 = 0.2998	766.14	1.437
318.15 K, x1 = 0.4001	757.31	1.245
318.15 K, x1 = 0.4994	749.63	1.1
318.15 K, x1 = 0.6004	742.59	1.008
318.15 K, x1 = 0.6989	736.5	0.921
318.15 K, x1 = 0.8001	730.9	0.861
318.15 K, x1 = 0.8991	726.05	0.822
318.15 K, x1 = 1	721.82	0.79
323.15 K, x1 = 0.1011	783.63	1.799
323.15 K, x1 = 0.1989	772.51	1.528
323.15 K, x1 = 0.2998	762.31	1.301
323.15 K, x1 = 0.4001	753.47	1.136
323.15 K, x1 = 0.4994	745.77	1.011
323.15 K, x1 = 0.6004	738.74	0.931
323.15 K, x1 = 0.6989	732.65	0.853
323.15 K, x1 = 0.8001	727.06	0.801
323.15 K, x1 = 0.8991	722.24	0.773
323.15 K, x1 = 1	718.11	0.74
328.15 K, x1 = 0.1011	779.82	1.612
328.15 K, x1 = 0.1989	768.66	1.374
328.15 K, x1 = 0.2998	758.44	1.18
328.15 K, x1 = 0.4001	749.58	1.039
328.15 K, x1 = 0.4994	741.89	0.93
328.15 K, x1 = 0.6004	734.86	0.862
328.15 K, x1 = 0.6989	728.77	0.793
328.15 K, x1 = 0.8001	723.2	0.747
328.15 K, x1 = 0.8991	718.41	0.724
328.15 K, x1 = 1	714.39	0.692
333.15 K, x1 = 0.1011	775.97	1.466
333.15 K, x1 = 0.1989	764.78	1.24
333.15 K, x1 = 0.2998	754.53	1.073
333.15 K, x1 = 0.4001	745.66	0.955
333.15 K, x1 = 0.4994	737.97	0.859
333.15 K, x1 = 0.6004	730.93	0.801
333.15 K, x1 = 0.6989	724.87	0.738
333.15 K, x1 = 0.8001	719.31	0.699
333.15 K, x1 = 0.8991	714.55	0.681
333.15 K, x1 = 1	710.68	0.651
338.15 K, x1 = 0.1011	772.08	1.318
338.15 K, x1 = 0.1989	760.84	1.124
338.15 K, x1 = 0.2998	750.57	0.982
338.15 K, x1 = 0.4001	741.7	0.878
338.15 K, x1 = 0.4994	734.01	0.796
338.15 K, x1 = 0.6004	726.99	0.744
338.15 K, x1 = 0.6989	720.93	0.691
338.15 K, x1 = 0.8001	715.39	0.656
338.15 K, x1 = 0.8991	710.68	0.641
338.15 K, x1 = 1	706.95	0.615
343.15 K, x1 = 0.1011	768.13	1.189
343.15 K, x1 = 0.1989	756.86	1.025
343.15 K, x1 = 0.2998	746.58	0.901
343.15 K, x1 = 0.4001	737.7	0.811
343.15 K, x1 = 0.4994	730.01	0.739
343.15 K, x1 = 0.6004	723	0.695
343.15 K, x1 = 0.6989	716.95	0.647
343.15 K, x1 = 0.8001	711.44	0.616
343.15 K, x1 = 0.8991	706.79	0.604
343.15 K, x1 = 1	703.22	0.58
348.15 K, x1 = 0.1011	764.12	1.054
348.15 K, x1 = 0.1989	752.83	0.934
348.15 K, x1 = 0.2998	742.54	0.828
348.15 K, x1 = 0.4001	733.66	0.75
348.15 K, x1 = 0.4994	725.98	0.687
348.15 K, x1 = 0.6004	718.97	0.652
348.15 K, x1 = 0.6989	712.94	0.607
348.15 K, x1 = 0.8001	707.47	0.58
348.15 K, x1 = 0.8991	702.87	0.571
348.15 K, x1 = 1	699.47	0.549
353.15 K, x1 = 0.1011	760.07	0.981
353.15 K, x1 = 0.1989	748.76	0.855
353.15 K, x1 = 0.2998	738.45	0.765
353.15 K, x1 = 0.4001	729.57	0.696
353.15 K, x1 = 0.4994	721.9	0.642
353.15 K, x1 = 0.6004	714.9	0.611
353.15 K, x1 = 0.6989	708.9	0.572
353.15 K, x1 = 0.8001	703.47	0.546
353.15 K, x1 = 0.8991	698.94	0.54
353.15 K, x1 = 1	695.72	0.522
358.15 K, x1 = 0.1011	755.96	0.895
358.15 K, x1 = 0.1989	744.62	0.787
358.15 K, x1 = 0.2998	734.31	0.707
358.15 K, x1 = 0.4001	725.43	0.649
358.15 K, x1 = 0.4994	717.76	0.6
358.15 K, x1 = 0.6004	710.79	0.573
358.15 K, x1 = 0.6989	704.82	0.54
358.15 K, x1 = 0.8001	699.43	0.516
358.15 K, x1 = 0.8991	694.99	0.512
358.15 K, x1 = 1	691.96	0.497
363.15 K, x1 = 0.1011	751.78	0.82
363.15 K, x1 = 0.1989	740.43	0.726
363.15 K, x1 = 0.2998	730.12	0.657
363.15 K, x1 = 0.4001	721.24	0.605
363.15 K, x1 = 0.4994	713.59	0.562
363.15 K, x1 = 0.6004	706.64	0.54
363.15 K, x1 = 0.6989	700.7	0.512
363.15 K, x1 = 0.8001	695.37	0.49
363.15 K, x1 = 0.8991	691.02	0.487
363.15 K, x1 = 1	688.18	0.475
